Laboratory results from patent US20100056519A1, “COMPOSITION AND METHOD FOR REDUCING PLATELET ACTIVATION AND FOR THE TREATMENT OF THROMBOTIC EVENTS” (priority 2008, published 2010).

What was measured:
Format in all cases: cell-based, human
Settings in all cases: Mean ± SD
[1] = system: SPAN-12; assay: TRAP-stimulated whole blood flow cytometry, SPAN-12
Method: (§1) The methodology employed was conventional aggregation induced by 5 μM ADP, 1 μg/ml collagen, 10 μM TRAP, whole blood aggregation with 1 μg/ml collagen, Ultegra, and PFA-100 Analyzers, expression of 14 intact, and TRAP-stimulated major receptors by whole blood flow cytometry were utilized to assess platelet activity after preincubation with escalating concentrations of E5555 (20 ng/ml, 50 ng/ml, and 100 ng/ml). The experiments were performed in healthy volunteers, CAD patients treated with ASA, and CAD patients treated with ASA and clopidogrel combination (n=10, for each group).
(§2) An Informed Consent was obtained from all volunteers. Drug users were excluded from data analysis. The study was approved by Quorum Institutional Review Board. All subjects underwent blood sampling after at least 30 minutes of rest and two or more hours of fasting. Blood (28 ml) was drawn between 8 and 10 a.m. in order to avoid any diurnal influence and sampled from an antecubital vein using a 21-gauge butterfly needle containing 3.2% sodium citrate (1:9 volume) after having discarded the first 1.5 ml of free running blood. Four Vacutainer tubes (7.0 ml) were collected for a total of 28 ml of whole blood-citrate mixture from each study participant. Chronologically, blood samples were delivered to the core laboratory facility within 45 minutes after drawing. Then all tubes of blood-citrate mixture were pooled. One portion of pooled blood (5 ml) was kept as an internal control and pretreated with the vehicle. The remaining blood (23 ml) was used for the in vitro exposure to E5555 at concentrations of 20 ng/ml, 50 ng/ml, and 100 ng/ml. […] The platelet aggregation studies, Rapid Analyzers measures, and flow cytometry preparations were initiated within no more than 110 minutes following the blood draw, incubation with the drug, and preparation of the samples.
(§3) Formation of platelet-leukocyte aggregates was assessed by dual labeling with pan-platelet marker (CD151), and then with CD14, the macrophage receptor for endotoxin lipopolysaccharides (PharMingen, and Coulter, San Diego, Calif., USA). The tubes were then covered with aluminum foil and incubated at 37° C. for 40 minutes with gentle rotation. After incubation, samples were immediately analyzed on a Becton Dickinson FACScan flow cytometer. The instrument was set up to measure forward light scatter, and FITC fluorescence. All parameters were collected using four-decade logarithmic amplification. The data was retrieved in list mode files and then analyzed. P selectin was expressed as percent positive cells. Other antigens were expressed as log mean fluorescence intensity.
(§4) For flow cytometry (TRAP-stimulated) all of the above flow cytometry experiments were identically repeated utilizing prestimulation with 10 μmol/L TRAP for 5 minutes at 37° C. To determine statistics, a Paired Sign Test was used to define significance of differences between vehicle and E5555-treated groups. The Mann-Whitney U test was used to analyze nonparametric data. Normally distributed data were expressed as mean±standard error (m±SE), and skewed data as median (range). All P-values were two sided. All analysis was performed using the SPSS v9.0 program (SPSS Inc., Chicago, Ill.).

[2] = system: PAC-1 (GPIIb/IIIa); assay: TRAP-stimulated whole blood flow cytometry, PAC-1
Method: as §1, §2, §3, §4

[3] = system: SPAN-12; assay: Unstimulated whole blood flow cytometry, SPAN-12
Method: as §1, §2, §3

[4] = system: GPIb (CD42b); assay: TRAP-stimulated whole blood flow cytometry, GPIb
Method: as §1, §2, §3, §4

[5] = system: LAMP-3 (CD63); assay: TRAP-stimulated whole blood flow cytometry, LAMP-3
Method: as §1, §2, §3, §4

[6] = E5555 100 ng/ml, Patients (ASA + C)
[7] = E5555 100 ng/ml, Patients (ASA)
[8] = E5555 20 ng/ml, Patients (ASA + C)
[9] = E5555 50 ng/ml, Patients (ASA + C)

With `Br.CCOc1cc2c(c(F)c1OCC)C(=N)N(CC(=O)c1cc(N3CCOCC3)c(OC)c(C(C)(C)C)c1)C2` [E5555, 1-(3-tert-butyl-4-methoxy-5-morpholinophenyl)-2-(5,6-diethoxy-7-fluoro-1-imino-1,3-dihydro-2H-isoindol-2-yl)ethanone hydrobromide] the “SPAN-12, Mean Fluorescence Intensity” value ([1]; E5555 50 ng/ml, Patients (ASA)) was 9 ± 4 MFI, the “SPAN-12, Mean Fluorescence Intensity” value ([1]; E5555 50 ng/ml, Volunteers) was 17 ± 5 MFI and the “SPAN-12, Mean Fluorescence Intensity” value [1, 6] was 11 ± 3 MFI. For the same molecule, the “SPAN-12, Mean Fluorescence Intensity” value [1, 7] was 10 ± 6 MFI, the “SPAN-12, Mean Fluorescence Intensity” value ([1]; E5555 100 ng/ml, Volunteers) was 17 ± 4 MFI and the “PAC-1 (GPIIb/IIIa), Mean Fluorescence Intensity” value (“PAC-1 (GPIIb/IIIa)” below) [2, 8] was 41 ± 5 MFI. For the same molecule, the “PAC-1 (GPIIb/IIIa)” value ([2]; E5555 20 ng/ml, Patients (ASA)) was 52 ± 6 MFI, the “PAC-1 (GPIIb/IIIa)” value ([2]; E5555 20 ng/ml, Volunteers) was 68 ± 8 MFI and the “PAC-1 (GPIIb/IIIa)” value [2, 9] was 9 ± 1 MFI. The “PAC-1 (GPIIb/IIIa)” value ([2]; E5555 50 ng/ml, Patients (ASA)) was 9 ± 3 MFI, the “PAC-1 (GPIIb/IIIa)” value ([2]; E5555 50 ng/ml, Volunteers) was 17 ± 9 MFI and the “PAC-1 (GPIIb/IIIa)” value [2, 6] was 5 ± 2 MFI. For the same molecule, the “PAC-1 (GPIIb/IIIa)” value [2, 7] was 4 ± 1 MFI, the “PAC-1 (GPIIb/IIIa)” value ([2]; E5555 100 ng/ml, Volunteers) was 7 ± 3 MFI and the “SPAN-12, Mean Fluorescence Intensity” value [3, 8] was 11 ± 4 MFI. For the same molecule, the “SPAN-12, Mean Fluorescence Intensity” value ([3]; E5555 20 ng/ml, Patients (ASA)) was 14 ± 3 MFI, the “SPAN-12, Mean Fluorescence Intensity” value ([3]; E5555 20 ng/ml, Volunteers) was 19 ± 4 MFI and the “SPAN-12, Mean Fluorescence Intensity” value [3, 9] was 10 ± 6 MFI. For the same molecule, the “SPAN-12, Mean Fluorescence Intensity” value ([3]; E5555 50 ng/ml, Patients (ASA)) was 11 ± 5 MFI, the “SPAN-12, Mean Fluorescence Intensity” value ([3]; E5555 50 ng/ml, Volunteers) was 19 ± 6 MFI and the “SPAN-12, Mean Fluorescence Intensity” value [3, 6] was 12 ± 7 MFI. For the same molecule, the “SPAN-12, Mean Fluorescence Intensity” value [3, 7] was 13 ± 5 MFI, the “SPAN-12, Mean Fluorescence Intensity” value ([3]; E5555 100 ng/ml, Volunteers) was 18 ± 6 MFI and the “GPIb (CD42b), Mean Fluorescence Intensity” value (“GPIb (CD42b)” below) [4, 8] was 105 ± 14 MFI. For the same molecule, the “GPIb (CD42b)” value ([4]; E5555 20 ng/ml, Patients (ASA)) was 102 ± 9 MFI, the “GPIb (CD42b)” value ([4]; E5555 20 ng/ml, Volunteers) was 134 ± 17 MFI and the “GPIb (CD42b)” value [4, 9] was 102 ± 19 MFI. The “GPIb (CD42b)” value ([4]; E5555 50 ng/ml, Patients (ASA)) was 104 ± 17 MFI, the “GPIb (CD42b)” value ([4]; E5555 50 ng/ml, Volunteers) was 125 ± 24 MFI and the “GPIb (CD42b)” value [4, 6] was 137 ± 18 MFI. For the same molecule, the “GPIb (CD42b)” value [4, 7] was 100 ± 14 MFI, the “GPIb (CD42b)” value ([4]; E5555 100 ng/ml, Volunteers) was 150 ± 26 MFI and the “LAMP-3 (CD63), Mean Fluorescence Intensity” value (from here on “LAMP-3 (CD63)”) [5, 8] was 20 ± 5 MFI. For the same molecule, the “LAMP-3 (CD63)” value ([5]; E5555 20 ng/ml, Patients (ASA)) was 24 ± 8 MFI, the “LAMP-3 (CD63)” value ([5]; E5555 20 ng/ml, Volunteers) was 26 ± 7 MFI and the “LAMP-3 (CD63)” value [5, 9] was 5 ± 3 MFI. For the same molecule, the “LAMP-3 (CD63)” value ([5]; E5555 50 ng/ml, Patients (ASA)) was 9 ± 3 MFI, the “LAMP-3 (CD63)” value ([5]; E5555 50 ng/ml, Volunteers) was 8 ± 2 MFI and the “LAMP-3 (CD63)” value [5, 6] was 4 ± 1 MFI. The “LAMP-3 (CD63)” value [5, 7] was 5 ± 1 MFI and the “LAMP-3 (CD63)” value ([5]; E5555 100 ng/ml, Volunteers) was 7 ± 2 MFI.
